Tested on: TCRV (strain TRVL 11573)
Parameters: species or system AG129 mice
Details: mouse, in vivo

NC(=O)c1ncn([C@@H]2O[C@H](CO)[C@@H](O)[C@H]2O)n1 [Ribavirin, ribavirin]
Infectious TCRV Liver: 4.3, 3.5 log10 CCID50/mL
Infectious TCRV Serum: 2.5, ND log10 CCID50/mL
Infectious TCRV Spleen: 6.1, 5.5 log10 CCID50/mL
survival: 82%
viral loads on day 9 p.i. compared to placebo: only modestly reduced viral loads
